Experimental data reported in patent US20240190890A1, “MK2 INHIBITORS AND USES THEREOF” (Bristol-Myers Squibb Company, priority 2022, published 2024).
One block for each compound: values may come before it.

Target: p38a activated, mitogen-activated protein kinase-activated protein kinase 2 (MAPKAP-K2 or MK2) enzyme (Homo sapiens (Human), UniProt P49137)
Assay: MK2 Omnia continuous-read kinase assay for compound potency
Format: biochemical
Details: [MK-2]=0.4 nM, [ATP]=10 μM, [ST3-Sox]=10 μM; room temperature
Method in brief: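 p38a-activated MK2 (0.4 nM) with 10 μM ATP (apparent Km) and 10 μM S/T3-Sox peptide in Tris pH 7.5 buffer with MgCl2, EGTA and DTT. Fluorescence (ex360/em485) read continuously for 120 min at room temperature. IC50 from initial linear slopes; apparent kinact/KI from kobs of exponential progress-curve fits.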

p38a activated, mitogen-activated protein kinase-activated protein kinase 2 (MAPKAP-K2 or MK2) enzyme, sequence (P49137 whole entry): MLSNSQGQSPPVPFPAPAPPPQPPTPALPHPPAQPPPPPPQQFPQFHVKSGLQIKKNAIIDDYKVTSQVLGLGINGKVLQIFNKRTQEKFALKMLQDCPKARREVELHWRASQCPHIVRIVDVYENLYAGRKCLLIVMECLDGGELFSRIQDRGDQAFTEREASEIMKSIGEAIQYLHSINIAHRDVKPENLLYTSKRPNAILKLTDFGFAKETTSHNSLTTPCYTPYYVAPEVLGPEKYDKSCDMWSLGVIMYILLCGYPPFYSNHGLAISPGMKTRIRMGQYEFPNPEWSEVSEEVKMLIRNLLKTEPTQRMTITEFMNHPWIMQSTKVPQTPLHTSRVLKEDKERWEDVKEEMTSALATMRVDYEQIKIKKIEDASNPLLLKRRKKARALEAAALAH

Compound: C[C@@H]1CNc2c(sc3ccc4nc(-c5cc(Cl)nc(N6CCN(C)CC6)n5)ccc4c23)C(=O)N1 [Example I-17, (R)-3-(6-chloro-2-(4-methylpiperazin-1-yl)pyrimidin-4-yl)-10-methyl-9,10,11,12-tetrahydro-8H-[1,4]diazepino[5′,6′:4,5]thieno[3,2-f]quinolin-8-one]
- IC50: 137 nM

Compound: C=Cc1cc(-c2ccc3c(ccc4sc5c(c43)NC[C@@H](C)NC5=O)n2)cc(CN2CCOCC2)n1 [Example I-140, (R)-10-methyl-3-(2-(morpholinomethyl)-6-vinylpyridin-4-yl)-9,10,11,12-tetrahydro-8H-[1,4]diazepino[5′,6′:4,5]thieno[3,2-f]quinolin-8-one]
- IC50: 14 nM

Compound: C[C@@H]1CNc2c(sc3ccc4nc(-c5ccnc(/C=C/CN(C)C)c5)ccc4c23)C(=O)N1 [Example I-114, (R,E)-3-(2-(3-(dimethylamino)prop-1-en-1-yl)pyridin-4-yl)-10-methyl-9,10,11,12-tetrahydro-8H-[1,4]diazepino[5′,6′:4,5]thieno[3,2-f]quinolin-8-one]
- IC50: 11 nM

Compound: C=Cc1cc(N2CCN(C)CC2)nc(-c2ccc3c(ccc4sc5c(c43)NC[C@@H](C)NC5=O)n2)n1 [Example I-62, (R)-10-methyl-3-(4-(4-methylpiperazin-1-yl)-6-vinylpyrimidin-2-yl)-9,10,11,12-tetrahydro-8H-[1,4]diazepino[5′,6′:4,5]thieno[3,2-f]quinolin-8-one]
- IC50: 27 nM

Compound: (R)-10-methyl-3-(6-(3-morpholinoprop-1-en-2-yl)pyrimidin-4-yl)-9,10,11,12-tetrahydro-8H-[1,4]diazepino[5′,6′:4,5]thieno[3,2-f]quinolin- [Example I-139]
- IC50: 2 nM

Compound: C#Cc1cc(-c2ccc3c(ccc4sc5c(c43)NC[C@@H](C)NC5=O)n2)cc(CO)n1 [Example I-98, (R)-3-(2-ethynyl-6-(hydroxymethyl)pyridin-4-yl)-10-methyl-9,10,11,12-tetrahydro-8H-[1,4]diazepino[5′,6′:4,5]thieno[3,2-f]quinolin-8-one]
- IC50: 60 nM

Compound: C=Cc1cc(-c2ccc3c(ccc4sc5c(c43)NC[C@@H](C)NC5=O)n2)c(N(C)C)nn1 [Example I-129, (R)-3-(3-(dimethylamino)-6-vinylpyridazin-4-yl)-10-methyl-9,10,11,12-tetrahydro-8H-[1,4]diazepino[5′,6′:4,5]thieno[3,2-f]quinolin-8-one]
- IC50: 106 nM

Compound: C=Cc1cc(-c2ccc3c(ccc4sc5c(c43)NC[C@@H](C)NC5=O)n2)c(F)cn1 [Example I-70, (R)-3-(5-fluoro-2-vinylpyridin-4-yl)-10-methyl-9,10,11,12-tetrahydro-8H-[1,4]diazepino[5′,6′:4,5]thieno[3,2-f]quinolin-8-one]
- IC50: 64 nM

Compound: C#Cc1cc(-c2ccc3c(ccc4sc5c(c43)NC[C@@H](C)NC5=O)n2)c(C)cn1 [Example I-111, (R)-3-(2-ethynyl-5-methylpyridin-4-yl)-10-methyl-9,10,11,12-tetrahydro-8H-[1,4]diazepino[5′,6′:4,5]thieno[3,2-f]quinolin-8-one]
- IC50: 104 nM

Compound: C=Cc1cc(-c2ccc3c(ccc4sc5c(c43)NC[C@@H](C)NC5=O)n2)c(CN2CCOCC2)cn1 [Example I-153, (R)-10-methyl-3-(5-(morpholinomethyl)-2-vinylpyridin-4-yl)-9,10,11,12-tetrahydro-8H-[1,4]diazepino[5′,6′:4,5]thieno[3,2-f]quinolin-8-one]
- IC50: 23 nM

Compound: C=C(F)c1cc(-c2ccc3c(ccc4sc5c(c43)NC[C@@H](C)NC5=O)n2)ccn1 [Example I-108, (R)-3-(2-(1-fluorovinyl)pyridin-4-yl)-10-methyl-9,10,11,12-tetrahydro-8H-[1,4]diazepino[5′,6′:4,5]thieno[3,2-f]quinolin-8-one]
- IC50: 122 nM

Compound: C[C@@H]1CNc2c(sc3ccc4nc(-c5cc(Cl)nnc5OCCN5CCOCC5)ccc4c23)C(=O)N1 [Example I-132, (R)-3-(6-chloro-3-(2-morpholinoethoxy)pyridazin-4-yl)-10-methyl-9,10,11,12-tetrahydro-8H-[1,4]diazepino[5′,6′:4,5]thieno[3,2-f]quinolin-8-one]
- IC50: 912 nM

Compound: C[C@@H]1CNc2c(sc3ccc4nc(-c5ccnc(C#CC(C)(C)N)c5)ccc4c23)C(=O)N1 [Example I-135, (R)-3-(2-(3-amino-3-methylbut-1-yn-1-yl)pyridin-4-yl)-10-methyl-9,10,11,12-tetrahydro-8H-[1,4]diazepino[5′,6′:4,5]thieno[3,2-f]quinolin-8-one]
- IC50: 15 nM

Continued, values first:

- IC50: 39 nM
Compound: C#Cc1cc(-c2ccc3c(ccc4sc5c(c43)NC[C@@H](C)NC5=O)n2)cc(CN2CCOCC2)n1 [Example I-169, (R)-3-(2-ethynyl-6-(morpholinomethyl)pyridin-4-yl)-10-methyl-9,10,11,12-tetrahydro-8H-[1,4]diazepino[5′,6′:4,5]thieno[3,2-f]quinolin-8-one]

- IC50: 38 nM
Compound: C=Cc1cc(-c2ccc3c(ccc4sc5c(c43)NC[C@@H](C)NC5=O)n2)cc(N2CCC(OC)CC2)n1 [Example I-158, (R)-3-(2-(4-methoxypiperidin-1-yl)-6-vinylpyridin-4-yl)-10-methyl-9,10,11,12-tetrahydro-8H-[1,4]diazepino[5′,6′:4,5]thieno[3,2-f]quinolin-8-one]

- IC50: 214 nM
Compound: C#Cc1cc(-c2ccc3c(ccc4sc5c(c43)NC[C@@H](C)NC5=O)n2)cc(N2CCOCC2)n1 [Example I-157, (R)-3-(2-ethynyl-6-morpholinopyridin-4-yl)-10-methyl-9,10,11,12-tetrahydro-8H-[1,4]diazepino[5′,6′:4,5]thieno[3,2-f]quinolin-8-one]

- IC50: 212 nM
Compound: C[C@@H]1CNc2c(sc3ccc4nc(-c5ccnc(Cl)c5F)ccc4c23)C(=O)N1 [Example I-221, (R)-3-(2-chloro-3-fluoropyridin-4-yl)-10-methyl-9,10,11,12-tetrahydro-8H-[1,4]diazepino[5′,6′:4,5]thieno[3,2-f]quinolin-8-one]

- IC50: 18 nM
Compound: C=Cc1nc(C(=O)OCC)c(-c2ccc3c(ccc4sc5c(c43)NC[C@@H](C)NC5=O)n2)s1 [Example I-234, ethyl (R)-5-(10-methyl-8-oxo-9,10,11,12-tetrahydro-8H-[1,4]diazepino[5′,6′:4,5]thieno[3,2-f]quinolin-3-yl)-2-vinylthiazole-4-carboxylate]

- IC50: 128 nM
Compound: C=Cc1nscc1-c1ccc2c(ccc3sc4c(c32)NC[C@@H](C)NC4=O)n1 [Example I-228, (R)-10-methyl-3-(3-vinylisothiazol-4-yl)-9,10,11,12-tetrahydro-8H-[1,4]diazepino[5′,6′:4,5]thieno[3,2-f]quinolin-8-one]

- IC50: 142 nM
Compound: C=Cc1nccc(-c2ccc3c(ccc4sc5c(c43)NC[C@@H](C)NC5=O)n2)c1C [Example I-219, (R)-10-methyl-3-(3-methyl-2-vinylpyridin-4-yl)-9,10,11,12-tetrahydro-8H-[1,4]diazepino[5′,6′:4,5]thieno[3,2-f]quinolin-8-one]

- IC50: 7 nM
Compound: C=Cc1cc(-c2ccc3c(ccc4sc5c(c43)NC[C@@H](C)NC5=O)n2)cc(CN2C[C@@H](C)O[C@@H](C)C2)n1 [Example I-185, (R)-3-(2-(((2S,6R)-2,6-dimethylmorpholino)methyl)-6-vinylpyridin-4-yl)-10-methyl-9,10,11,12-tetrahydro-8H-[1,4]diazepino[5′,6′:4,5]thieno[3,2-f]quinolin-8-one]

- IC50: 35 nM
Compound: C=Cc1cc(-c2ccc3c(ccc4sc5c(c43)NC[C@@H](C)NC5=O)n2)cc(N2CCN(CC)CC2)n1 [Example I-173, (R)-3-(2-(4-ethylpiperazin-1-yl)-6-vinylpyridin-4-yl)-10-methyl-9,10,11,12-tetrahydro-8H-[1,4]diazepino[5′,6′:4,5]thieno[3,2-f]quinolin-8-one]

- IC50: 79 nM
Compound: C#Cc1nccc(-c2ccc3c(ccc4sc5c(c43)NC[C@@H](C)NC5=O)n2)c1F [Example I-218, (R)-3-(2-ethynyl-3-fluoropyridin-4-yl)-10-methyl-9,10,11,12-tetrahydro-8H-[1,4]diazepino[5′,6′:4,5]thieno[3,2-f]quinolin-8-one]

- IC50: 15 nM
Compound: [2H]C([2H])([2H])C(O)c1cnc(C=C)cc1-c1ccc2c(ccc3sc4c(c32)NC[C@@H](C)NC4=O)n1 (stereo partly drawn) [Example I-259, (10R)-3-(5-(1-hydroxyethyl-2,2,2-d3)-2-vinylpyridin-4-yl)-10-methyl-9,10,11,12-tetrahydro-8H-[1,4]diazepino[5′,6′:4,5]thieno[3,2-f]quinolin-8-one]

- IC50: 189 nM
Compound: C#Cc1cc(-c2ccc3c(ccc4sc5c(c43)NC[C@@H](C)NC5=O)n2)cc(N2CCC(OC)CC2)n1 [Example I-159, (R)-3-(2-ethynyl-6-(4-methoxypiperidin-1-yl)pyridin-4-yl)-10-methyl-9,10,11,12-tetrahydro-8H-[1,4]diazepino[5′,6′:4,5]thieno[3,2-f]quinolin-8-one]

- IC50: 23 nM
Compound: C=Cc1cc(-c2ccc3c(ccc4sc5c(c43)NC[C@@H](C)NC5=O)n2)cc(N2CCOCC2)n1 [Example I-156, (R)-10-methyl-3-(2-morpholino-6-vinylpyridin-4-yl)-9,10,11,12-tetrahydro-8H-[1,4]diazepino[5′,6′:4,5]thieno[3,2-f]quinolin-8-one]

- IC50: 20 nM
Compound: C=Cc1cc(-c2ccc3c(ccc4sc5c(c43)NC[C@@H](C)NC5=O)n2)c(OC)cn1 [Example I-256, (R)-3-(5-methoxy-2-vinylpyridin-4-yl)-10-methyl-9,10,11,12-tetrahydro-8H-[1,4]diazepino[5′,6′:4,5]thieno[3,2-f]quinolin-8-one]

- IC50: 16 nM
Compound: [2H]C([2H])([2H])C(O)c1cnc(C=C)cc1-c1ccc2c(ccc3sc4c(c32)NC[C@@H](C)NC4=O)n1 (stereo partly drawn) [Example I-260, (10R)-3-(5-(1-hydroxyethyl-2,2,2-d3)-2-vinylpyridin-4-yl)-10-methyl-9,10,11,12-tetrahydro-8H-[1,4]diazepino[5′,6′:4,5]thieno[3,2-f]quinolin-8-one]
